According to ChEMBL document CHEMBL1201862, “PubChem BioAssay data set” (2004):
The source made the active and inactive calls.

Key:
Assay type in all cases: functional
[1] = SAR analysis of small molecule activators of Apaf-1 using a LZ-Caspase-9/Caspase-3 Fluorescent Selectivity assay - Set 2.; conditions: read-out: EC50_Mean
[2] = target: Apoptotic protease-activating factor 1 (Homo sapiens, UniProt O14727); experiment: SAR analysis of small molecule Activators of Apaf-1 in a Fluorescent assay - set 2.; conditions: read-out: EC50_Mean
Chain of Apoptotic protease-activating factor 1 (O14727 whole entry): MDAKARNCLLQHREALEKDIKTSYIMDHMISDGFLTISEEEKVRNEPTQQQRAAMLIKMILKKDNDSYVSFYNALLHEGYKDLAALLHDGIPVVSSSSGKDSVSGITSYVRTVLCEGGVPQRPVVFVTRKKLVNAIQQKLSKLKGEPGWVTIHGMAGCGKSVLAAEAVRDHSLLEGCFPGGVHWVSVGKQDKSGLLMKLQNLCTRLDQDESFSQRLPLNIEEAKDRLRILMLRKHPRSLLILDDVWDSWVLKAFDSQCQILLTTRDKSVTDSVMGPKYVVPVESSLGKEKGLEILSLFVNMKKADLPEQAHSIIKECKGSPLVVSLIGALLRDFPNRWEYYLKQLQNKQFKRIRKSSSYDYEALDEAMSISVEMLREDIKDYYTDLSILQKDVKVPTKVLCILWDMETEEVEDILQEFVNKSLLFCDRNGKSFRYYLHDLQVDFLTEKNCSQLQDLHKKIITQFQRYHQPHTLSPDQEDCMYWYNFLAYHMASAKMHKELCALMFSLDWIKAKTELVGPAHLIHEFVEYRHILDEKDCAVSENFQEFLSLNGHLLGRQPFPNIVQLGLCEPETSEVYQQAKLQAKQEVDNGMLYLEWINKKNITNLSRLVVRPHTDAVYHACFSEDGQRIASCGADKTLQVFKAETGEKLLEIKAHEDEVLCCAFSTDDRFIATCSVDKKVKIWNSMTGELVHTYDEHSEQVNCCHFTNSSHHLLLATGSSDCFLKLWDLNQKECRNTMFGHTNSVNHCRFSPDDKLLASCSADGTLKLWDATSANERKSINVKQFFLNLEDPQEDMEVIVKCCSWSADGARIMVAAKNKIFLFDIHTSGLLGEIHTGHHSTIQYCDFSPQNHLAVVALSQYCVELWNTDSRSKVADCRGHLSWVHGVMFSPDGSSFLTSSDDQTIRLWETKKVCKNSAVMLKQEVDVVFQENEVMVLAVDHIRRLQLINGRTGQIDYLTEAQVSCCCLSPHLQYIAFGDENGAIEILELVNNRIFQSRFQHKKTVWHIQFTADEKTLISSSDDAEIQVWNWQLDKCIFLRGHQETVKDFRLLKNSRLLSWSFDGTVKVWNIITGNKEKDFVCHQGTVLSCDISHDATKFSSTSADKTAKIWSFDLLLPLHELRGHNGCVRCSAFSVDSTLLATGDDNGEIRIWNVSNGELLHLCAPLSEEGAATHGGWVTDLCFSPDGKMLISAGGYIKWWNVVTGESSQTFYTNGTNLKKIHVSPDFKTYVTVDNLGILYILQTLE

[3] = target: T1, Neuropeptides B/W receptor type 1 (Homo sapiens, UniProt P48145); experiment: GPR7 antagonist potency, late-stage follow-up, cell-based, fluorescence, dose response, set 5 (AID 588566)
T1 sequence (P48145 whole entry): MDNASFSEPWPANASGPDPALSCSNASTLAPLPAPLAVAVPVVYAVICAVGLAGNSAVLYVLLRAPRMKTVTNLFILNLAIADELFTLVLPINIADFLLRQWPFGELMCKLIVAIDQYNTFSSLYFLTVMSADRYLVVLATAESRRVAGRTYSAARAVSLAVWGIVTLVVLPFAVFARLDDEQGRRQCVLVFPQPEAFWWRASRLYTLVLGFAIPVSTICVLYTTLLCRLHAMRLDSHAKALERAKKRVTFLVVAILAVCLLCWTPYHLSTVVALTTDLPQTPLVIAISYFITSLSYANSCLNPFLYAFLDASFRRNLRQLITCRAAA

[4] = target: Melanin-concentrating hormone receptor 1 (Homo sapiens, UniProt Q99705); experiment: Late-stage fluorescence-based counterscreen for antagonists of the G-protein coupled receptor 7 (GPR7): cell-based dose response assay to identify antagonists of the melanin-concentrating hormone receptor 1 (MCHR1) Set 5.
Chain of Melanin-concentrating hormone receptor 1 (Q99705 whole entry): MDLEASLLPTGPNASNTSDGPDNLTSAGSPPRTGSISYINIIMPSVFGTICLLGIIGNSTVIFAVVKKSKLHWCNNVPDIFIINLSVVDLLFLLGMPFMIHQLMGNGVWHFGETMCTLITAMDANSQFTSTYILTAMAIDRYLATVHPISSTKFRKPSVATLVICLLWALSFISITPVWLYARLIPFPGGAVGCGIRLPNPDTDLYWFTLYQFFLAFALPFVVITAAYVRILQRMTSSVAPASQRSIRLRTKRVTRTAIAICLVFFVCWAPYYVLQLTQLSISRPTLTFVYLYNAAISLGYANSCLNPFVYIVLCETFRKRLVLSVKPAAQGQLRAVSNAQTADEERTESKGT

EC50 [1]	EC50 [2]	IC50 [3]	IC50 [4]	SMILES
> 100 µM (inactive)	94.1 µM (active)	–	–	Cc1nc2ccccc2n1CC(C)C(=O)O (centres undefined)
–	–	~0.227 µM (active)	> 20 µM (inactive)	N#CC(c1ccccc1)c1cnn(Cc2cccc3ccccc23)c(=O)c1Br (centres undefined)
